Reference: US20060211045A1, “Fluorescently tagged ligands” (priority 2003, published 2006)

Legend:
human A1-receptor = biological target: T1, human A1-receptor (Homo sapiens, UniProt P30542); experiment: Live cell confocal imaging of ligand binding to CHO-A1 cells; type: cell-based; design: expressed in transfected cells; host or cells: CHO (CHO-K1) cells: CHO-A1 and CHO-A1fos; cell membranes in A1, whole or live cells in the other assays
T1 sequence (P30542 1-326): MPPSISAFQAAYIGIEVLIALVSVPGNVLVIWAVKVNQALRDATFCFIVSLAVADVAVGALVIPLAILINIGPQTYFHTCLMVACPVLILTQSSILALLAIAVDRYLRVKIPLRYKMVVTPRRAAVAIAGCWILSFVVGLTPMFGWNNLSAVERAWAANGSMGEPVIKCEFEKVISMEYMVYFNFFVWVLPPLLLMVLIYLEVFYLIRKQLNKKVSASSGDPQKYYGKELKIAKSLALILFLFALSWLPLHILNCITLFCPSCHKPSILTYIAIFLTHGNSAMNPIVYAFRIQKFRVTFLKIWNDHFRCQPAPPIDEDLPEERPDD
Method: Images were acquired using a Zeiss LSM510 confocal microscope using CHO-A1 cells grown to 50% confluency on 8-well Labtek™ plates in Dulbecco's
Modification of Eagle's Medium:Ham's F12 containing 5% foetal calf serum and 2 mM glutamine. Cells were washed twice with HEPES-buffered saline prior to incubation at 22° C. with compounds as indicated.
Functional studies were performed in CHO-K1 cells expressing both the human A1-AR and a c-fos-pGL3 reporter vector (CHO-A1fos cells). […] Luciferase expression was quantified using a Luclite® kit according to manufacturer's instructions. Live cell confocal imaging was carried out on CHO-A1 cells or CHO cells expressing the A1-AR tagged on the C-terminus with a green fluorescent protein (CHO-A1Tpz).

[1] = biological target: T2, human adenosine A1 receptor (A1-AR) (Homo sapiens, UniProt P30542); experiment: Fluorescence correlation spectroscopy (FCS) of ligand binding on CHO-A1 cells
T2 construct: expressed in transfected cells; host or cells: CHO (CHO-K1) cells: CHO-A1 and CHO-A1fos; cell membranes in A1, whole or live cells in the other assays
T2 sequence (P30542 1-326): T1 sequence (P30542 1-326)
From the text: FCS is a non-invasive technique which measures fluctuations in fluorescence intensity in a confocal volume of <10^−15 l. Statistical analysis of these fluctuations gives information about the speed of diffusion (i.e. mass) and concentration of the fluorescent molecules present. Thus free ligand (fast diffusing) and bound ligand (slow diffusing) can be quantified simultaneously on a single cell. We have used FCS to measure binding of the fluorescent ligand, xanthine amine cogener-BODIPY®630/650 (XAC-BY630) to the human adenosine A1 receptor (A1-AR).
CHO cells expressing either the human A1-AR or an A1-AR-Topaz fusion were cultured on glass-bottomed 8-well plates and prepared for live cell measurement FCS measurements were made using a Zeiss Confocor 2, fitted with an Axiocam CCD camera for x-y positioning. Cells were incubated with ligands at 22° C. for the times indicated and the confocal volume was positioned on the upper membrane. Data were collected for 2×30 s, following a 15 s pre-bleach and analysed using a multi-parameter equation using Zeiss AIM software.

[2] = biological target: human adenosine A1-receptor (Homo sapiens, UniProt P30542); experiment: biochemical

CCCn1c(=O)c2[nH]c(C3CCCC3)nc2n(CCC)c1=O [DPCPX, 8-cyclopentyl-1,3-dipropyl xanthine, reference compound]
Inhibition of membrane binding of XAC-BY630 (confocal imaging) (human A1-receptor; 30 min pre-incubation with DPCPX 10^−8-10^−6M, XAC-BY630 30 min, 50 nM): concentration-dependent inhibition

CCCn1c(=O)c2[nH]c(-c3ccc(OCC(=O)NCCNC(=O)CCCCCNC(=O)COc4ccc(/C=C/C5=[N+]6C(=Cc7ccc(-c8cccs8)n7[B-]6(F)F)C=C5)cc4)cc3)nc2n(CCC)c1=O [XAC-BY630, xanthine amine cogener-BODIPY®630/650]
Binding to membrane-localised A1-ARs (confocal imaging) (human A1-receptor; CHO-A1 cells, 22° C.): time- and concentration-dependent manner | Time after which binding was detected (confocal imaging) (human A1-receptor; XAC-BY630 25-250 nM, CHO-A1 cells): 5 min | Amount of τD1 component after DPCPX preincubation ([1]; 15 nM XAC-BY630 for 30 min, DPCPX 1 μM, 30 min preincubation, n=4): 13.6±5.4 receptors/μm^2 | Amount of τD1 component ([1]; 15 nM XAC-BY630 for 30 min, no DPCPX, n=8): 51.8±14.9 receptors/μm^2 | Diffusion time τD of free ligand in buffer (FCS) ([1]; in buffer, single component, n=10): 60±2 μs | Diffusion time τD2, very slow diffusing component (non-specific binding) ([1]; upper membrane of CHO-A1 cells, XAC-BY630 1-40 nM, 10-60 min, 61/71 cells): 345 ± 41 ms | Diffusion time τD1, first slow-diffusing component (receptor-bound ligand) ([1]; upper membrane of CHO-A1 cells, XAC-BY630 1-40 nM, 10-60 min, 69/71 cells): 17.4 ± 1.1 ms | Kb [2]: 126 nM
